According to PubChem BioAssay (NCI):
Where “and” joins values, the source holds several entries; their conditions need not be identical. Equal entries are not always repeated.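 Cells were grown in 96-well plates and exposed to each compound for 48 hours at five concentrations; endpoints were interpolated linearly between bracketing concentrations, or set to the highest concentration if not reached. GI50 marks 50% less growth. At the TGI there is no net growth.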

What was measured:
Test in all cases: growth of human tumour cells (NCI), 48 h
A549 NSCLC = test system: A549 NSCLC
HCT-15 colon = test system: HCT-15 colon
NCI-H23 lung = test system: NCI-H23 lung
OVCAR-8 ovarian = test system: OVCAR-8 ovarian
RPMI-8226 leukemia = test system: RPMI-8226 leukemia
SF-539 CNS = test system: SF-539 CNS
SK-MEL-5 melanoma = test system: SK-MEL-5 melanoma
SK-OV-3 ovarian = test system: SK-OV-3 ovarian
UACC-257 melanoma = test system: UACC-257 melanoma
NCI/ADR-RES ovarian = test system: NCI/ADR-RES ovarian

## CN(C)CN(C)c1nc(N(C)C)nc(N(C)C)n1
A549 NSCLC
  TGI: > 100 µM
HCT-15 colon
  TGI: > 100 µM
NCI-H23 lung
  TGI: > 100 µM
OVCAR-8 ovarian
  TGI: > 100 µM
RPMI-8226 leukemia
  TGI: > 100 µM
SF-539 CNS
  TGI: > 100 µM
SK-MEL-5 melanoma
  TGI: > 100 µM
SK-OV-3 ovarian
  TGI: > 100 µM
UACC-257 melanoma
  TGI: > 100 µM

## O=C(N[C@H]1CC2(C=C(I)C(=O)C(I)=C2)OC1=O)OCc1ccccc1
A549 NSCLC
  TGI: > 100 µM
HCT-15 colon
  TGI: 44.2 µM
NCI-H23 lung
  TGI: 32.6 µM
OVCAR-8 ovarian
  TGI: 31.3 µM
RPMI-8226 leukemia
  TGI: > 100 µM
SF-539 CNS
  TGI: 32 µM
SK-MEL-5 melanoma
  TGI: 74.6 µM
SK-OV-3 ovarian
  TGI: > 100 µM
UACC-257 melanoma
  TGI: 32.4 µM

## NC(=O)N1N=C2c3ccccc3OC[C@H]2[C@@H]1c1ccccc1
A549 NSCLC
  TGI: > 100 µM
HCT-15 colon
  TGI: > 81.6 µM
NCI-H23 lung
  TGI: > 92.4 µM
OVCAR-8 ovarian
  TGI: 27.2 µM
RPMI-8226 leukemia
  TGI: > 89.3 µM
SF-539 CNS
  TGI: 19.1 µM
SK-OV-3 ovarian
  TGI: > 100 µM
UACC-257 melanoma
  TGI: > 100 µM

## Cc1cn([C@H]2CN(O)C[C@@H](CO)O2)c(=O)[nH]c1=O
A549 NSCLC
  TGI: > 100 µM
HCT-15 colon
  TGI: > 100 µM
OVCAR-8 ovarian
  TGI: > 100 µM
RPMI-8226 leukemia
  TGI: > 100 µM
SF-539 CNS
  TGI: > 100 µM
SK-MEL-5 melanoma
  TGI: > 100 µM
SK-OV-3 ovarian
  TGI: > 100 µM
UACC-257 melanoma
  TGI: > 100 µM

## O=C(Cn1ccnc1[N+](=O)[O-])NCc1ccc(F)cc1
A549 NSCLC
  TGI: > 100 µM
HCT-15 colon
  TGI: > 100 µM
NCI-H23 lung
  TGI: > 100 µM
OVCAR-8 ovarian
  TGI: > 100 µM
RPMI-8226 leukemia
  TGI: > 100 µM
SF-539 CNS
  TGI: > 100 µM
SK-MEL-5 melanoma
  TGI: > 100 µM
SK-OV-3 ovarian
  TGI: > 100 µM
UACC-257 melanoma
  TGI: > 100 µM

## CC[C@]1(O)C[C@@H]2CN(CCc3c([nH]c4ccccc34)[C@@](C(=O)OC)(c3cc4c(cc3OC)N(C)[C@H]3[C@@](O)(C(=O)OC)[C@H](OC(=O)CCCBr)[C@]5(CC)C=CCN6CC[C@]43[C@@H]65)C2)C1
A549 NSCLC
  GI50: < 0.0166 µM
  TGI: > 100 µM
HCT-15 colon
  GI50: 0.12 µM
  TGI: > 100 µM
NCI-H23 lung
  GI50: < 0.0204 µM
  TGI: > 100 µM
NCI/ADR-RES ovarian
  GI50: 0.986 µM
  TGI: > 100 µM
OVCAR-8 ovarian
  GI50: < 0.0209 µM
  TGI: > 100 µM
RPMI-8226 leukemia
  GI50: < 0.01 µM
  TGI: 0.492 µM
SK-OV-3 ovarian
  GI50: 0.306 µM
  TGI: > 22.2 µM
UACC-257 melanoma
  GI50: 3.27 µM
  TGI: > 100 µM

## O=C(NCCOC(=O)CCCCCCCCC(=O)OCCNC(=O)NC(=O)c1cn(Cc2ccccc2)c(=O)[nH]c1=O)NC(=O)c1cn(Cc2ccccc2)c(=O)[nH]c1=O
A549 NSCLC
  TGI: > 100 µM
HCT-15 colon
  TGI: > 100 µM
NCI-H23 lung
  TGI: > 100 µM
OVCAR-8 ovarian
  TGI: > 100 µM
RPMI-8226 leukemia
  TGI: > 100 µM
SF-539 CNS
  TGI: > 100 µM
SK-MEL-5 melanoma
  TGI: > 100 µM
SK-OV-3 ovarian
  TGI: > 100 µM
UACC-257 melanoma
  TGI: > 100 µM

## Nc1cccc(C(=O)/C=C/c2ccccc2O)c1
A549 NSCLC
  TGI: > 100 µM
HCT-15 colon
  TGI: > 100 µM
NCI-H23 lung
  TGI: > 100 µM
OVCAR-8 ovarian
  TGI: > 100 µM
RPMI-8226 leukemia
  TGI: 39.3 µM
SF-539 CNS
  TGI: > 100 µM
SK-MEL-5 melanoma
  TGI: > 100 µM
SK-OV-3 ovarian
  TGI: > 100 µM
UACC-257 melanoma
  TGI: > 100 µM

## Cc1cc2nc3c(C(OC4OC(CO)C(O)C(O)C4O)C(O)CO)nn(-c4ccc(F)cc4)c3nc2cc1C (centres undefined)
HCT-15 colon
  TGI: > 100 µM
NCI-H23 lung
  TGI: > 100 µM
OVCAR-8 ovarian
  TGI: > 100 µM
RPMI-8226 leukemia
  TGI: > 100 µM
SF-539 CNS
  TGI: > 100 µM
SK-OV-3 ovarian
  TGI: > 100 µM
UACC-257 melanoma
  TGI: > 100 µM

## COc1cc2ccc(CC(=O)O)cc2cc1OC
A549 NSCLC
  TGI: > 100 µM
HCT-15 colon
  TGI: > 100 µM
NCI-H23 lung
  TGI: > 100 µM
OVCAR-8 ovarian
  TGI: > 100 µM
RPMI-8226 leukemia
  TGI: > 100 µM
SK-MEL-5 melanoma
  TGI: > 100 µM
SK-OV-3 ovarian
  TGI: > 100 µM
UACC-257 melanoma
  TGI: > 100 µM

## Cc1ccc(-n2cc(/C(N)=N/O)c3ccccc3c2=O)cc1
A549 NSCLC
  TGI: > 100 µM
HCT-15 colon
  TGI: > 100 µM
NCI-H23 lung
  TGI: > 100 µM
OVCAR-8 ovarian
  TGI: > 100 µM
RPMI-8226 leukemia
  TGI: > 100 µM
SF-539 CNS
  TGI: > 100 µM
SK-MEL-5 melanoma
  TGI: > 100 µM
SK-OV-3 ovarian
  TGI: > 100 µM
UACC-257 melanoma
  TGI: > 100 µM

## O=S1(=O)CS(=O)(=O)OCCCCCO1
A549 NSCLC
  TGI: > 100 µM
HCT-15 colon
  TGI: > 100 µM
NCI-H23 lung
  TGI: > 100 µM
OVCAR-8 ovarian
  TGI: > 100 µM
RPMI-8226 leukemia
  TGI: > 100 µM
SK-OV-3 ovarian
  TGI: > 100 µM
UACC-257 melanoma
  TGI: > 100 µM

## CC(=O)Nc1ccc2c(c1)[nH]c(=O)c1cc(Cl)ccc12
A549 NSCLC
  TGI: > 100 µM
HCT-15 colon
  TGI: > 100 µM
NCI-H23 lung
  TGI: > 100 µM
NCI/ADR-RES ovarian
  TGI: > 100 µM
OVCAR-8 ovarian
  TGI: 64.9 µM
SF-539 CNS
  TGI: > 100 µM
SK-MEL-5 melanoma
  TGI: > 100 µM
SK-OV-3 ovarian
  TGI: > 100 µM
UACC-257 melanoma
  TGI: 59.5 µM

## O=C(CC/C(CC(=O)c1ccc(Cl)cc1)=N\O)Nc1cccc(Cl)c1
A549 NSCLC
  TGI: > 100 µM
HCT-15 colon
  TGI: > 100 µM
NCI-H23 lung
  TGI: > 100 µM
OVCAR-8 ovarian
  TGI: > 100 µM
RPMI-8226 leukemia
  TGI: > 100 µM
SF-539 CNS
  TGI: > 100 µM
SK-MEL-5 melanoma
  TGI: > 100 µM
SK-OV-3 ovarian
  TGI: > 100 µM
UACC-257 melanoma
  TGI: > 100 µM

## Cc1ccccc1NC(=O)C(=O)CC(=O)c1sc(-n2nc(-c3ccccc3)cc2-c2ccccc2)nc1C
A549 NSCLC
  TGI: > 100 µM
HCT-15 colon
  TGI: > 100 µM
NCI-H23 lung
  TGI: > 100 µM
OVCAR-8 ovarian
  TGI: > 100 µM
RPMI-8226 leukemia
  TGI: > 100 µM
SF-539 CNS
  TGI: > 100 µM
SK-OV-3 ovarian
  TGI: > 100 µM
UACC-257 melanoma
  TGI: > 100 µM

## c1ccc2c(c1)n1nnnc1c1nnnn21
A549 NSCLC
  TGI: > 100 µM
HCT-15 colon
  TGI: > 100 µM
NCI-H23 lung
  TGI: > 100 µM
OVCAR-8 ovarian
  TGI: > 100 µM
RPMI-8226 leukemia
  TGI: > 100 µM
SF-539 CNS
  TGI: > 100 µM
SK-MEL-5 melanoma
  TGI: > 100 µM
SK-OV-3 ovarian
  TGI: > 100 µM
UACC-257 melanoma
  TGI: > 100 µM

## Clc1ccc(/C=C/c2csnn2)cc1
A549 NSCLC
  TGI: > 100 µM
HCT-15 colon
  TGI: > 100 µM
NCI-H23 lung
  TGI: > 100 µM
OVCAR-8 ovarian
  TGI: > 100 µM
SF-539 CNS
  TGI: > 100 µM
SK-MEL-5 melanoma
  TGI: > 100 µM
SK-OV-3 ovarian
  TGI: > 100 µM
UACC-257 melanoma
  TGI: > 100 µM

## Cc1cccc(NC(=O)CSc2nnc(-c3ccc(N=Cc4ccc(Cl)cc4)cc3)o2)c1
A549 NSCLC
  TGI: > 100 µM
HCT-15 colon
  TGI: > 100 µM
NCI-H23 lung
  TGI: > 100 µM
OVCAR-8 ovarian
  TGI: > 100 µM
RPMI-8226 leukemia
  TGI: > 100 µM
SK-MEL-5 melanoma
  TGI: > 100 µM
SK-OV-3 ovarian
  TGI: > 100 µM
UACC-257 melanoma
  TGI: > 100 µM

## COc1cc2c(c(OC)c1OC)-c1ccc(SC)c(=O)cc1C(CC(=O)Oc1ccccc1F)C2 (centres undefined)
A549 NSCLC
  TGI: > 7.5 µM
HCT-15 colon
  TGI: 0.248 µM
NCI-H23 lung
  TGI: 0.0894 µM
OVCAR-8 ovarian
  TGI: > 7.5 µM
RPMI-8226 leukemia
  TGI: > 7.5 µM
SK-OV-3 ovarian
  TGI: > 7.5 µM

## CC1(O)CC2C(CC1SCc1ccccc1)C2(C)C (centres undefined)
A549 NSCLC
  GI50: 40.9 µM and 17.4 µM
  TGI: > 100 µM and 31.1 µM
HCT-15 colon
  TGI: 65 µM and 30.6 µM
NCI-H23 lung
  TGI: 58.5 µM and 27.4 µM
OVCAR-8 ovarian
  TGI: > 100 µM and 30.9 µM
RPMI-8226 leukemia
  TGI: 44.9 µM and 51.1 µM
SF-539 CNS
  TGI: 60.2 µM and 33.4 µM
SK-MEL-5 melanoma
  TGI: 40.4 µM and 25.8 µM
SK-OV-3 ovarian
  GI50: 37.5 µM and 15.7 µM
  TGI: > 100 µM and 29.2 µM
UACC-257 melanoma
  GI50: 26.2 µM and 12 µM
  TGI: 59.5 µM and 24.7 µM

## Cc1cc(N(CCC#N)CCC#N)ccc1/C=C1N=C(/C=C\c2ccccc2)N(c2ccc(C(=O)O)cc2)C\1=O
A549 NSCLC
  TGI: > 100 µM
HCT-15 colon
  TGI: > 100 µM
NCI-H23 lung
  TGI: > 100 µM
OVCAR-8 ovarian
  TGI: > 100 µM
RPMI-8226 leukemia
  TGI: > 100 µM
SF-539 CNS
  TGI: > 100 µM
SK-MEL-5 melanoma
  TGI: > 100 µM
SK-OV-3 ovarian
  TGI: > 100 µM
UACC-257 melanoma
  TGI: > 100 µM

## Cc1ncc([N+](=O)[O-])n1CCOc1ccc(C(=O)/C=C/c2ccc(C(F)(F)F)cc2)cc1
A549 NSCLC
  GI50: 2.42 µM
  TGI: 8.5 µM
HCT-15 colon
  GI50: 1.82 µM
  TGI: 4.09 µM
NCI/ADR-RES ovarian
  GI50: 2.76 µM
  TGI: 9.29 µM
OVCAR-8 ovarian
  GI50: 2.09 µM
  TGI: 5.57 µM
RPMI-8226 leukemia
  GI50: 1.91 µM
  TGI: 4.37 µM
SF-539 CNS
  GI50: 1.65 µM
  TGI: 3.07 µM
SK-MEL-5 melanoma
  GI50: 6.1 µM
  TGI: 20.3 µM
SK-OV-3 ovarian
  GI50: 4.13 µM
  TGI: 15.3 µM
UACC-257 melanoma
  GI50: 3.6 µM
  TGI: 16.5 µM
